Results from patent US20140378502A1, “Par1 Inhibitors for Use in the Treatment or Prevention of Paramyxoviridae Infections” (Université Laval, priority 2011, published 2014).
Where no end group is shown, it is not given here.

Key:
hMPV strain C-85473 [1] = assay: hMPV-infected BALB/c mice, three-day prophylactic treatment regimen (experiment 1); assay type: in vivo; conditions: 3-day treatment; for mice that reached the humane endpoint: none in the untreated group; for pulmonary viral titers: day 5 post hMPV infection, vs diluted DMSO or H2O treated mice; for pulmonary viral titers / cytokine expression in the lungs: 50 or 500 μM; for cytokine expression in the lungs: day 5 post infection, Luminex; for weight loss: hMPV-infected mice, 50 or 500 μM intranasal, vs infected untreated mice (H2O or DMSO), followed 14 days
Description: (§1) hMPV viral titers were determined by 10-fold serial dilutions of virus in 24-well plates containing LLC-MK2 cells. Before infection, cells were washed twice with phosphate-buffered saline (PBS) to remove residual serum proteins that could inhibit trypsin activity. Infected plates were incubated at 37° C. with 5% CO2 and replenished with 1 μl of fresh trypsin (0.0002%) every other day. hRSV viral titers were determined by 10-fold serial dilutions of virus in 24-well plates containing Hep2 cells. Before infection, cells were washed twice with phosphate-buffered saline (PBS). Infected plates were incubated at 37° C. with 5% CO2. On day 4 post infection, plates were fixed with 80% acetone at −20° C. for 30 min, washed with PBS and air dried. The presence of hRSV was detected by an immuno-staining assay using a monoclonal goat Anti-Respiratory Syncytial Virus primary antibody and a donkey anti-Goat IgG Secondary Antibody, HRP conjugate (both from Cederlane). Virus titers were reported as 50% tissue culture infectious doses (TCID50) per ml, per mouse or per gram of lung. The lower limit of detection of the assay is 10^2 TCID50 per gram. TCID50 were calculated by the Reed and Muench method.
In the first protocol, groups of 12 4-6-week-old female BALB/c mice (Charles River Laboratories) were infected intranasally with 4-7×10^5 TCID50 hMPV strain C-85473 in 25 μl of OptiMEM™ supplemented with the PAR-1 or PAR-1 antagonist at a final concentration of 50 μM or 500 μM. As infected controls, groups of 12 4-6-week-old BALB/c mice (Charles River Laboratories) were infected intranasally with 4-7×10^5 TCID50 hMPV strain C-85473 in 25 μl of OptiMEM™ supplemented with H2O or DMSO. As an uninfected control, 12 mice were sham infected with the concentrated supernatant of non-infected LLC-MK2 cells supplemented with DMSO. On day 1 and 2 post infection, animals were treated with the PAR-1 agonist or PAR-1 antagonist at a final concentration of 50 μM or 500 μM, or H2O or DMSO for control groups, resulting in a 3-day treatment in total. All animals were housed in groups of four in micro-isolator cages. The animals were evaluated on a daily basis for mortality, weight loss, and the presence of symptoms. On day 5 post-infection, lungs were removed from six mice per group for the evaluation of viral titres by cell culture and cytokine expression by Luminex™.
(§2) On day 5 post infection, six animals per group were sacrificed, the lungs were removed and snap frozen in liquid nitrogen. Lungs were weighed, homogenized in 1 ml of PBS, centrifuged (2000 rpm, 10 min) and the supernatant was used to infect LLC-MK2 monolayers (in case of hMPV-infected mice) or Hep2 monolayer (in case of hRSV-infected mice) for virus titration as reported in the section “Viral titers”.
(§3) 250 μL of lung homogenates (see section “Pulmonary viral titers”) were added to 250 μl 50 mM KPO4, pH 6.0 buffer containing 0.2% CHAPS {3-[(3-cholamidopropyl)-dimethylammonio]1-1-propanesulfonate} (Sigma) and 0.2% of a protease inhibitor cocktail (Sigma) and stored at −20° C. until the day of analysis. Samples were centrifuged at 13,800×g for 10 min at 4° C., and 50 μl of the supernatant was used for cytokine quantification. Levels of interleukin-4, IL-6, IL-12(p40), IL-12(p70), IFN-γ, KC, MCP-1, MIP-1α, RANTES were determined by the use of a 9-plex mouse bead kits (BioRad™/Millipore™) according to the manufacturer's instructions. Experiments were performed in a 96-well filter plate and results were analysed with the Luminex™ system (Qiagen™).
(§4) Differences in weight loss between groups was analysed by repeated measures two-way ANOVA. Viral titers, cytokine levels and mean histopathology scores were analysed using student t-test.

hMPV strain C-85473 [2] = assay: hMPV-infected BALB/c mice, five-day pre-exposure prophylactic treatment regimen (experiment 2); assay type: in vivo; conditions: 500 μM, 5-day treatment; for pulmonary inflammation (histopathology): infected treated vs infected untreated mice; for pulmonary viral titers: vs other infected groups; for weight loss (and symptoms): hMPV-infected mice, vs infected untreated mice
Description: as §1
(§5) In the second protocol, groups of 18 4-6-week-old BALB/c mice (Charles River Laboratories) were infected intranasally with 6-8×10^5 TCID50 hMPV strain C-85473 in 25 μl of OptiMEM™ supplemented with the PAR-1 agonist, PAR-1 antagonist or control peptide at a final concentration of 500 μM. As infected controls, groups of 18 4-6-week-old BALB/c mice (Charles River Laboratories) were infected intranasally with 6-8×10^5 TCID50 hMPV strain C-85473 in 25 μl of OptiMEM™ supplemented with H2O or DMSO. As uninfected control, groups 18 mice were sham infected with the concentrated supernatant of non-infected LLC-MK2 cells supplemented with the PAR-1 agonist, PAR-1 antagonist or control peptide at a final concentration of 500 μM or DMSO. On day 1 through 4 post infection, animals were treated with the PAR-1 agonist, PAR-1 antagonist or control peptide at a final concentration of 50 μM or 500 μM, or H2O or DMSO for control groups, resulting in a 5-day treatment in total. Animals were housed in groups of five and three in micro-isolator cages. The animals were evaluated on a daily basis for mortality, weight loss, and the presence of symptoms. On day 5 post-infection, lungs were removed from six mice per group for the evaluation of viral titres by cell culture and cytokine expression by Iuminex™. Lungs of another six mice per group were removed for histopathological analysis.
as §2, §3
On day 5 post infection, 6 animals per group were sacrificed, and the lungs were collected at specified time points and fixed with 4% buffered formalin. […]

hMPV strain C-85473 [3] = assay: hMPV-infected BALB/c mice, five-day treatment started simultaneously or 24 h post infection (experiment 3); assay type: in vivo; conditions: 500 μM
Description: as §1
In a third protocol, Two groups of 12 4-6-week-old BALB/c mice (Charles River Laboratories) were infected intranasally with 6×105 TCID50 hMPV strain C-85473 in 25 μl of OptiMEM™, supplemented with the PAR-1 agonist or PAR-1 antagonist at a final concentration of 500 μM and treated on days 1 through 4 post infection with the PAR-1 agonist or PAR-1 antagonist (500 μM). Two more groups of 4-6-week-old BALB/c mice (Charles River Laboratories) were infected intranasally with 6×105 TCID50 hMPV strain C-85473 in 25 μl of OptiMEM™. These groups were treated from day 1 though 5 post infection (treatment delayed 24 h post-infection) with the PAR-1 agonist or PAR-1 antagonist (500 μM). As infected controls, groups of 12 4-6-week-old BALB/c mice (Charles River Laboratories) were infected intranasally with 4×105 TCID50 hMPV strain C-85473 in 25 μl of OptiMEM supplemented with DMSO. All animals were housed in groups of four in micro-isolator cages. The animals were evaluated on a daily basis for mortality, weight loss, and the presence of symptoms. On day 5 post-infection, lungs were removed from six mice per group for the evaluation of viral titres by cell culture
as §2, §4

[4] = Uninfected (sham infected) mice treated for 5 days, check for toxic and non specific effects; assay type: in vivo, BALB/c mice; conditions: 500 μM
Description: as §5, with “Lungs of another six mice per group were removed for histopathological analysis.” left out
as §3

hRSV strain 15 595 = assay: hRSV Balb/C mouse model, five-day treatment (experiment 4); assay type: in vivo; conditions: day 5 post hRSV infection, 500 μM, 5-day treatment, vs untreated and PAR-1 agonist treated mice
Description: The clinical hRSV A strain 15 959 that was passed nine times on Hep2 cells, was grown on Hep2 cells in MEM™ (Life Technologies) supplemented with 2% FBS (Wisent). Hep2 cells were infected with 10 TCID50/Hep2 cell of hRSV 15 959 and plated out into one flask (150 cm^2) until 60% cytopathic effects were observed. Infected monolayers and supernatants were recovered with a cell scraper and sonicated. The pooled preparation was centrifuged (1200 r.p.m., 10 min) to remove cellular debris. Supernatant was aliquoted and stored at −80° C. The same protocol was followed for a flask of uninfected cells for control mice.
hMPV viral titers were determined by 10-fold serial dilutions of virus in 24-well plates containing LLC-MK2 cells. […] Infected plates were incubated at 37° C. with 5% CO2 and replenished with 1 μl of fresh trypsin (0.0002%) every other day. hRSV viral titers were determined by 10-fold serial dilutions of virus in 24-well plates containing Hep2 cells. […] The presence of hRSV was detected by an immuno-staining assay using a monoclonal goat Anti-Respiratory Syncytial Virus primary antibody and a donkey anti-Goat IgG Secondary Antibody, HRP conjugate (both from Cederlane). […] TCID50 were calculated by the Reed and Muench method. […]
Differences in weight loss between groups was analysed by repeated measures two-way ANOVA. […]

hMPV [5] = conditions: background statement; cited from earlier work
hMPV [6] = conditions: background statement; cited from earlier work; remark: listed apart in the source
hMPV [7] = conditions: background statement; cited from earlier work; remark: listed apart in the source
[8] = 5-day prophylactic treatment started simultaneously with infection, vs infected/untreated group (FIG. 12)
[9] = 5-day treatment started 24 h post infection, vs infected/untreated mice (FIG. 13)

Compound: TFLLR-NH2 [PAR-1 agonist]
- mice that reached the humane endpoint (hMPV strain C-85473 [1]; 50 μM): One out of 6
- difference in weight loss vs infected untreated mice (hMPV strain C-85473 [1]; 500 μM): significant on days 5 through 7
- mice that reached the humane endpoint (hMPV strain C-85473 [1]; 500 μM): 3 out of 6
- pulmonary viral titers (hMPV strain C-85473 [1]): No significant difference
- cytokine expression in the lungs (hMPV strain C-85473 [1]): dose-dependent increases in IL-6, IL-12(p40) and MCP-1
- weight loss (hMPV strain C-85473 [1]): dose-dependent increase in weight loss
- lung histopathological inflammation criteria compared to uninfected, untreated mice (hMPV strain C-85473 [2]; day 5 post hMPV infection): increases in all but one (peribronchial) inflammation criteria
- pulmonary inflammation (histopathology) (hMPV strain C-85473 [2]; day 5 post hMPV infection): No significant difference
- pulmonary cytokine/chemokine levels compared to infected mice treated with H2O (hMPV strain C-85473 [2]; day 5 post infection, Luminex): increased levels of IL-4, IL-12(p40) and MCP-1
- pulmonary cytokine/chemokine levels compared to mice treated with the control peptide (hMPV strain C-85473 [2]; day 5 post infection, Luminex): increased levels of IL-4, KC, MCP-1 and MIP-1α
- pulmonary viral titers (hMPV strain C-85473 [2]; day 5 post infection): No significant difference
- weight loss (and symptoms) (hMPV strain C-85473 [2]): no significant difference in weight loss
- weight loss (hMPV strain C-85473 [3]; [8]): regained weight less rapidly than the control
- weight loss (hMPV strain C-85473 [3]; [9]): regained their weight more slowly than infected/untreated mice
- weight loss (hMPV strain C-85473 [3]; 5-day treatment started 24 h post infection, vs infected/untreated mice (FIG. 13), listed as PAR1 agonist): more weight loss than infected/untreated mice
- pulmonary viral titers, treatment started simultaneously vs 24 h post infection (hMPV strain C-85473 [3]; day 5 post infection): No significant difference
- weight loss or symptoms in uninfected mice [4]: In none of the uninfected groups significant weight loss or symptoms were observed

Compound: CC(C)c1ccc(Cn2ccc3c4c(N)nc(NC5CC5)nc4ccc32)cc1 [PAR-1 antagonist, N3-cyclopropyl-7-{[4(I-methylethyl)phenyl]methyl)-7H-pyrrolo[3,2-f]quinazoline-I,3-diamine]
- pulmonary viral titers (hMPV strain C-85473 [1]): significant (though not dose-dependent) reduction
- cytokine expression in the lungs (hMPV strain C-85473 [1]): no significant difference in cytokine expression
- weight loss (hMPV strain C-85473 [1]): dose dependent reduction in weight loss
- pulmonary inflammation (histopathology) (hMPV strain C-85473 [2]; day 5 post hMPV infection): no pulmonary inflammation was observed
- pulmonary inflammatory cytokine/chemokine levels compared to all other groups of infected mice (hMPV strain C-85473 [2]; day 5 post infection, Luminex): significant reduction in all of the evaluated inflammatory cytokine/chemokine levels
- pulmonary viral titers (hMPV strain C-85473 [2]; day 5 post infection): reduced pulmonary viral titers
- weight loss (and symptoms) (hMPV strain C-85473 [2]): abolished all weight loss and symptoms
- weight loss (hMPV strain C-85473 [3]; [8]): significant reduced weight loss
- weight loss (hMPV strain C-85473 [3]; [9]): lost less weight than infected/untreated mice and weight loss started at a later time point
- weight loss (hMPV strain C-85473 [3]; 5-day treatment started 24 h post infection, vs infected/untreated mice (FIG. 13), listed as PAR1 antagonists): started losing weight later and lost less weight than untreated infected mice, although the difference was not found to be statistically significant
- pulmonary viral titers (hMPV strain C-85473 [3]; day 5 post infection, treatment simultaneous or started 24 h post infection, vs infected/untreated): reduction in pulmonary viral titers
- lung viral titers (hRSV strain 15 595): significantly reduced viral titers
- weight loss or symptoms in uninfected mice [4]: In none of the uninfected groups significant weight loss or symptoms were observed

Compound: NC(=O)c1ncn([C@@H]2O[C@H](CO)[C@@H](O)[C@H]2O)n1 [Ribavirin]
- in vitro activity against hMPV (hMPV [5]): good in vitro activity
- effect in hMPV-infected mice (hMPV [6]): effective
- effect in a lung transplant recipient with hMPV pneumonia (hMPV [7]): effective

Compound: FTLLR-NH2 [control peptide, FTLLR-NH2]
- weight loss or symptoms in uninfected mice [4]: In none of the uninfected groups significant weight loss or symptoms were observed

Compound: C[C@]12C[C@H](O)[C@H]3[C@@H](CCC4=CC(=O)CC[C@@]43C)[C@@H]1CC[C@@H]2C(=O)CO [corticosterone]
- effect in hMPV-infected mice (hMPV [6]): minimal benefit
